Test results taken from patent US12295973B2 (Fred Hutchinson Cancer Center, priority 2017, dated 2025).
Where a SMILES comes first, the peptide text is derived from it. [ ]: non-standard residue; d: D form. The star is where a group is joined. dPhe(4-NHCONH2) = NC(=O)Nc1ccc(C[C@@H](N)C(=O)O)cc1; Dihydroorotyl(S) = O=C1C[C@@H](C(=O)*)NC(=O)N1; dPhe(4-Cl) = N[C@H](Cc1ccc(Cl)cc1)C(=O)O; Phe(4-NH2) = Nc1ccc(C[C@H](N)C(=O)O)cc1; d2Nal = N[C@H](Cc1ccc2ccccc2c1)C(=O)O; Lys(iPr) = CC(C)NCCCC[C@H](N)C(=O)O; d3Pal = N[C@H](Cc1cccnc1)C(=O)O

Key:
Type in all cases: in vivo, mouse
[1] = test system: LT-HSCs; assay: Cell cycle status of HSCs (Ki-67/DAPI) after L-TBI; conditions: vs vehicle
From the text: The control of HSC self-renewal, differentiation, and proliferation is a tightly regulated process crucial for maintaining the HSC pool^29-34. This is particularly relevant during hematopoietic injuries (such as high dose or repeated rounds of chemotherapy or irradiation) when dormant HSCs transiently start to proliferate to replenish blood cells as unbalanced HSC proliferation can lead to stem cell exhaustion and long-term myelosuppression^35-37. […] Although there is a clear need for HSC proliferation to ensure regenerative hematopoiesis, previous reports have also shown that induction of HSC quiescence after high-dose irradiation correlates with increased hematopoietic recovery and enhanced mouse survival^35,37,41.
Flow cytometry and cell cycle analysis: Monoclonal antibodies recognizing the following markers were used for flow cytometric analyses and cell sorting of murine cells (LSR II or FACSAria III, BD Biosciences): (from BD Pharmingen) c-kit (2B8), Sca-1 (D7), CD11b (M1/70), CD11c (HL3), CD19 (ID3), CD3ϵ (145-2C11), CD34 (RAM34), CD45 (30-F11), CD45.1 (A20), CD45.2 (104), CD48 (HM48-1), CD62L (MEL-14), CD135 (A2F10.1), Gr-1 (RB6-8C5), NK1.1 (PK136), TER-119 (TER-119); (from eBioscience) CD127 (A7R34), CD150 (mShad150); (from Invitrogen) B220 (RA3-6B2) and streptavidin (N/A). […]

[2] = test system: mice exposed to L-TBI; assay: Complete blood counts (peripheral blood recovery) after L-TBI; conditions: vs vehicle
From the text: Description. Inhibition of sex steroids, which can be achieved in a reversible fashion pharmacologically, is a well-described strategy to promote lymphopoiesis in the BM and thymus^8,7,14,15. Although the most common method of sex steroid ablation clinically has been to use LHRH-agonists, it was described that an LHRH-Antagonist represents a more rational approach to promote immediate ablation of sex steroids for immune regeneration as it is far more rapid and abrogates the initial surge in sex steroids that LHRH-Agonist cause^16. Taken together with the impact of sex steroid inhibition on HSC function and the rapid regenerative effects of LHRH-Ant, it was hypothesized that LHRH-Ant could represent a rational non-cellular medical countermeasure for mitigating radiation injury and promoting hematopoietic regeneration when administered after hematopoietic insult. To test this hypothesis, a lethal TBI (L-TBI) dose of 840cGy that mediated lethality in more than 90% of mice (FIG. 1A) was used. […] Mouse lethality was a result of bone marrow failure, since transplant of BM Lin-Sca1^+tkit^+ (LSK) cells 3 days after L-TBI completely rescued all mice (FIG. 1B). […] It was then tested if LHRH-Ant could mediate even greater mouse survival when administered multiple times.
Methods. […] To assess mouse survival after radiation, mice were monitored for up to 60 days after TBI. […]

[3] = test system: functional HSCs; assay: Adapted competitive repopulation functional assay (BM and spleen cells of treated L-TBI mice transplanted into irradiated hosts); conditions: cells collected day 14 after L-TBI; vs recipients of cells from vehicle-treated mice
Description: To investigate the specific regenerative effects mediated by LHRH-Ant treatment on the hematopoietic stem and progenitor cell (HSPC) compartment, BM were analyzed at several time points after L-TBI. […] To determine hematopoietic functional potential, colony-forming unit activity was next quantified to determine the effects of LHRH-Ant on the recovery of committed hematopoietic progenitor cells. […] Consistent with these functional findings, on day 14 after L-TBI, expansion of LSKs as well as their downstream progenitors in mice given LHRH-Ant were found (FIGS. 2F, 2G). […] However, given the changes in HSC phenotype after radiation, the standard competitive repopulation functional assay was adapted to evaluate the presence and relative quantity of functional HSCs after L-TBI. Specifically, all cells from the BM and spleen (to account for potential changes to circulating HSCs) were collected and transplanted from vehicle or LHRH-Ant treated mice at day 14 after L-TBI into irradiated hosts (along with a rescue dose of congenic WBM cells to ensure survival). […]
Bone marrow transplant: In the competitive BM transplant, whole BM from CD45.2+ (vehicle or LHRH-Ant) donors and were collected and transplanted into lethally irradiated CD45.1+ mice (1100 cGy TBI, split dose) along with 2.5×10^5 CD45.1+ competitors, through tail vein injection. Donor chimerism was monitored monthly after transplant. […]

SMILES: CC(=O)N[C@H](Cc1ccc2ccccc2c1)C(=O)N[C@H](Cc1ccc(Cl)cc1)C(=O)N[C@H](Cc1cccnc1)C(=O)N[C@@H](CO)C(=O)N[C@@H](Cc1ccc(NC(=O)[C@@H]2CC(=O)NC(=O)N2)cc1)C(=O)N[C@H](Cc1ccc(NC(N)=O)cc1)C(=O)N[C@@H](CC(C)C)C(=O)N[C@@H](CCCCNC(C)C)C(=O)N1CCC[C@H]1C(=O)N[C@H](C)C(N)=O [LHRH-Ant, Degarelix] (Ac-[d2Nal][dPhe(4-Cl)][d3Pal]S[Phe(4-NH2)](Dihydroorotyl(S))[dPhe(4-NHCONH2)]L[Lys(iPr)]P[dA]-NH2)
- proliferative HSCs [1]: fewer proliferative HSCs
- proportion of Ki-67− quiescent LT-HSCs [1]: significantly higher proportion
- complete blood counts recovery after L-TBI [2]: recovered after L-TBI
- hematopoietic reconstitution of host mice [3]: significantly better hematopoietic reconstitution
